Measurements as given in patent US10370366B2 (Flatley Discovery Lab, LLC, priority 2013, dated 2019).

Target: T1, human F508del CFTR (Homo sapiens, UniProt P13569, DEL508-508)
T1 construct: expressed in transfected cells; host or cells: Fisher Rat Thyroid (FRT) cells
Assay: CFTR-YFP High Throughput Assay
Type: cell-based
Conditions: FRT cells expressing human F508del CFTR and YFP; for Emax: EMax normalized to the positive control, read-out: % Efficacy
Experimental: Assays for Detecting and Measuring the Effect of Compounds on F508del-CFTR Channels CFTR-YFP High Throughput Assay-CFTR Corrector Protocol:
This protocol is designed to selectively screen small molecule compounds for F508del CFTR corrector activities in the HTS YFP (yellow fluorescent protein) flux assay. In this protocol, the cells are incubated with testing compounds for 24 hours, washed with PBS, stimulated with forskolin and a standard potentiator, and fluorescence in each plate well is measured kinetically read on a 384-well HTS plate reader, such as the Hamamatsu FDSS-6000.
YFP fluorescence intensity values are acquired at high speed before and after iodide buffer is injected to the assay cells. Iodide enters the cells via active CFTR channels in the plasma membrane, and quenches the YFP fluorescence. The rate of fluorescence quenching is proportionate to the total CFTR activity in the cell membrane. F508del CFTR correctors increase the number of CFTR molecules in the testing cell plasma membrane, and thereby accelerate YFP quenching.
This method was initially developed for bench top plate readers (Galietta et al., 2001), and was adapted to the HTS format (Sui et al. Assay Drug Dev. Technol. 2010).
Fisher Rat Thyroid (FRT) cells stably expressing both human F508del CFTR and a halide-sensitive yellow fluorescent protein (YFP-H148Q/I152L 25,22) (Galietta et al. Am. J. Physiol Cell Physiol 281(5), C1734, 2001) were cultured on plastic surface in Coon's modified Ham's F12 medium supplemented with FBS 10%, L-glutamine 2 mM, penicillin 100 U/ml, and streptomycin 100 µg/ml. G418 (0.75-1.0 mg/ml) and zeocin (3.2 ug/ml) were used for selection of FRT cells expressing F508del CFTR and YFP. For primary screening, FRT cells were plated into 384-well black wall, transparent bottom microtiter plates (Costar; Corning Inc.) at a cell density of 20,000-40,000 per well. Test compound was applied to the cells at varying concentrations ranging from 2 nM-40 μM in either a 2-fold or 3-fold dilution series. Cells were incubated in a cell culture incubator at 37° C. with 5% CO2 for 24-26 h. Assay plates were washed with DPBS media (Thermo, cat# SH30028.02) to remove unbound cells and compound. Stimulation media (25 μL) containing 20 μM Forskolin & 30 μM P3 [6-(Ethyl-phenyl-sulfonyl)-4-oxo-1,4-dihydro-quinoline-3-carboxylic acid 2-methoxy-benzylamide] in Hams F-12 coon's modified media was added to the plate wells and incubated at room temperature for 60-120 min. […] (10 mM HEPES, 1 mM MgCl2, 3 mM KCl, 1 mM CaCl2, 150 mM NaI) was then added and fluorescence quench curves (Excitation 500 nm/Emission 540 nm; exposure 136 ms) were immediately recorded on an FDSS-6000 plate reader (Hamamatsu). Quench rates were derived from least squares fitting of the data as described by Sui et al (2010).
CFTR-YFP High Throughput Assay-CFTR Potentiator Protocol:
This protocol is designed to selectively screen small molecule compounds for F508del CFTR potentiator activities in the HTS YFP flux assay. Such compounds act acutely to stimulate CFTR already expressed on the membrane surface. In this protocol, the cells are incubated at 27° C. for 24 hours to homogeneously boost F508del CFTR expression in the cell membrane (low temperature correction), washed with PBS, treated with test compound, and CFTR activity is stimulated with forskolin for 1-2 hr. Measurement of ion flux is initiated by addition of iodide-containing buffer, and YFP quenching is kinetically recorded using a 384-well HTS plate reader, such as the Hamamatsu FDSS-6000.
YFP fluorescence intensity values are acquired at high speed over a 1 min time course before and after iodide buffer is injected to the assay cells. Iodide enters the cells via active CFTR channels in the plasma membrane, and quenches the YFP fluorescence. The rate of fluorescence quenching is proportionate to total CFTR activity in the cell membrane. […]

T1 sequence (P13569 with tags, fused parts or gaps DEL508-508): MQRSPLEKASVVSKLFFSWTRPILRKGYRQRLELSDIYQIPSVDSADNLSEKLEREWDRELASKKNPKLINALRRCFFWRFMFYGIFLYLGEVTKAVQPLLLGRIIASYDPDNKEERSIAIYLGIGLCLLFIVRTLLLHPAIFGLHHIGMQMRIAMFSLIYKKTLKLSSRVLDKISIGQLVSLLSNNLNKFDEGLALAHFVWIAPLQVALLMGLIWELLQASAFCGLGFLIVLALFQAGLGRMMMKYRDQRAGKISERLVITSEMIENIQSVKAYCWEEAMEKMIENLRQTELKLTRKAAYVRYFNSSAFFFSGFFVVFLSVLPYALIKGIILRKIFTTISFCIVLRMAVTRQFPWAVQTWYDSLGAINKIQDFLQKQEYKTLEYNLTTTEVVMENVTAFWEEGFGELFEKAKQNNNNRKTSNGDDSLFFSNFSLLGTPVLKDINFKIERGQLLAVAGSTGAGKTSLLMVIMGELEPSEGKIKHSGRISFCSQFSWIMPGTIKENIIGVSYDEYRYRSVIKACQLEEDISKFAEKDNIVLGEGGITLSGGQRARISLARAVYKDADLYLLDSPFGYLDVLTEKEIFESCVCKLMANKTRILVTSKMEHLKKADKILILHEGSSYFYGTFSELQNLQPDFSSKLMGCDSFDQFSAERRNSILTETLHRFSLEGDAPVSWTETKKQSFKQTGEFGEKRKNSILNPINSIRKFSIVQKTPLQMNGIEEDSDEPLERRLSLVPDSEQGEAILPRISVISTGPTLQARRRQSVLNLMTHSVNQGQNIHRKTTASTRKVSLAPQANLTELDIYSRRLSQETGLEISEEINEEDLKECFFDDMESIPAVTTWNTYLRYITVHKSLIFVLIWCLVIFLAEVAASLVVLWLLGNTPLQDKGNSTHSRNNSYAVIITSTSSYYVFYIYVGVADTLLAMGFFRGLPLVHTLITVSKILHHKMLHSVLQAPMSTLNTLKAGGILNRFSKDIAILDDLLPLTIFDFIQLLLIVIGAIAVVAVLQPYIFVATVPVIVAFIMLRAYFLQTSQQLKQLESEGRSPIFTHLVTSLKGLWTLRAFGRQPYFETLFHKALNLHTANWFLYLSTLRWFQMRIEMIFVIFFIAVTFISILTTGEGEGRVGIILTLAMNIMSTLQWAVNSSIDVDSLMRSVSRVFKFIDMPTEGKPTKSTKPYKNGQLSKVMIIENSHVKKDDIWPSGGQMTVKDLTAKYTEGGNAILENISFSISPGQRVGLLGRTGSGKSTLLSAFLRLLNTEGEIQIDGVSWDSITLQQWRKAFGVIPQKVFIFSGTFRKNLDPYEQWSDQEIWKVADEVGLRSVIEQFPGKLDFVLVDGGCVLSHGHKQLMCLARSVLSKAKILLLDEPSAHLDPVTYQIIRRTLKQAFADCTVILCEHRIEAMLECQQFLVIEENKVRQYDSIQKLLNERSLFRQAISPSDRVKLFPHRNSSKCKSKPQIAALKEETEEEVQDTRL

Row | SMILES | Emax [%] | EC50 [µM]
1 | CCN(C(=O)Cn1nc(Cc2cccnc2)c2cc(Cl)ccc2c1=O)c1ccc2c(c1)OC(F)(F)O2 [Example 53, 2-(6-chloro-1-oxo-4-(pyridin-3-ylmethyl)phthalazin-2(1H)-yl)-N-(2,2-difluorobenzo[d][1,3]dioxol-5-yl)-N-ethylacetamide] | 30 to 80 | –
2 | CCN(C(=O)Cn1nc(Cc2cccnc2)c2ccc(Cl)cc2c1=O)c1ccc2c(c1)OC(F)(F)O2 [Example 54, 2-(7-chloro-1-oxo-4-(pyridin-3-ylmethyl)phthalazin-2(1H)-yl)-N-(2,2-difluorobenzo[d][1,3]dioxol-5-yl)-N-ethylacetamide] | 30 to 80 | –
3 | CCN(C(=O)Cn1nc(Cc2cccnc2)c2cccc(OC)c2c1=O)c1ccc2c(c1)OC(F)(F)O2 [Example 55, N-(2,2-difluorobenzo[d][1,3]dioxol-5-yl)-N-ethyl-2-(8-methoxy-1-oxo-4-(pyridin-3-ylmethyl)phthalazin-2(1H)-yl)acetamide] | 30 to 80 | –
4 | CCN(C(=O)Cn1nc(Cc2cccnc2)c2c(OC)cccc2c1=O)c1ccc2c(c1)OC(F)(F)O2 [Example 56, N-(2,2-difluorobenzo[d][1,3]dioxol-5-yl)-N-ethyl-2-(5-methoxy-1-oxo-4-(pyridin-3-ylmethyl)phthalazin-2(1H)-yl)acetamide] | 30 to 80 | –
5 | CCOc1cccc2c(Cc3cccnc3)nn(CC(=O)N(CC)c3ccc4c(c3)OC(F)(F)O4)c(=O)c12 [Example 57, N-(2,2-difluorobenzo[d][1,3]dioxol-5-yl)-N-ethyl-2-(8-ethoxy-1-oxo-4-(pyridin-3-ylmethyl)phthalazin-2(1H)-yl)acetamide] | 30 to 80 | –
6 | CCOc1cccc2c(=O)n(CC(=O)N(CC)c3ccc4c(c3)OC(F)(F)O4)nc(Cc3cccnc3)c12 [Example 58, N-(2,2-difluorobenzo[d][1,3]dioxol-5-yl)-N-ethyl-2-(5-ethoxy-1-oxo-4-(pyridin-3-ylmethyl)phthalazin-2(1H)-yl)acetamide] | 30 to 80 | < 10
7 | CCN(C(=O)Cn1nc(Cc2cccnc2)c2cccc(OC3CCCCC3)c2c1=O)c1ccc2c(c1)OC(F)(F)O2 [Example 59, 2-(8-(cyclohexyloxy)-1-oxo-4-(pyridin-3-ylmethyl)phthalazin-2(1H)-yl)-N-(2,2-difluorobenzo[d][1,3]dioxol-5-yl)-N-ethylacetamide] | 30 to 80 | 10 to 20
8 | CCN(C(=O)Cn1nc(Cc2cccnc2)c2c(OC3CCCCC3)cccc2c1=O)c1ccc2c(c1)OC(F)(F)O2 [Example 60, 2-(5-(cyclohexyloxy)-1-oxo-4-(pyridin-3-ylmethyl)phthalazin-2(1H)-yl)-N-(2,2-difluorobenzo[d][1,3]dioxol-5-yl)-N-ethylacetamide] | 30 to 80 | –
9 | CCN(C(=O)Cn1nc(Cc2cccnc2)c2cccc(OCCOC)c2c1=O)c1ccc2c(c1)OC(F)(F)O2 [Example 61, N-(2,2-difluorobenzo[d][1,3]dioxol-5-yl)-N-ethyl-2-(8-(2-methoxyethoxy)-1-oxo-4-(pyridin-3-ylmethyl)phthalazin-2(1H)-yl)acetamide] | 30 to 80 | –
10 | CCN(C(=O)Cn1nc(Cc2cccnc2)c2c(OCCOC)cccc2c1=O)c1ccc2c(c1)OC(F)(F)O2 [Example 62, N-(2,2-difluorobenzo[d][1,3]dioxol-5-yl)-N-ethyl-2-(5-(2-methoxyethoxy)-1-oxo-4-(pyridin-3-ylmethyl)phthalazin-2(1H)-yl)acetamide] | 30 to 80 | –
11 | CCOC(=O)c1ccc2c(-c3cccc(Cl)c3)nn(CC(=O)N(C)c3ccc4nc(C)oc4c3)c(=O)c2c1 [Example 65, ethyl 1-(3-chlorophenyl)-3-(2-(methyl(2-methylbenzo[d]oxazol-6-yl)amino)-2-oxoethyl)-4-oxo-3,4-dihydrophthalazine-6-carboxylate] | > 80 | < 10
12 | CCOC(=O)c1ccc2c(=O)n(CC(=O)N(C)c3ccc4nc(C)oc4c3)nc(-c3cccc(Cl)c3)c2c1 [Example 66, ethyl 1-(3-chlorophenyl)-3-(2-(methyl(2-methylbenzo[d]oxazol-6-yl)amino)-2-oxoethyl)-4-oxo-3,4-dihydrophthalazine-7-carboxylate] | > 80 | < 10
